Here are results for one compound from patent publication US20130310347A1, “MULTI-MODALITY MOLECULAR IMAGING HIGH-THROUGHPUT ASSAY FOR IDENTIFYING HEAT SHOCK PROTEIN 90 (HSP90) INHIBITORS” (The Board of Trustees of the Leland Stanford Junior …, priority 2012, published 2013).

The test system of one experiment is 1975 cells. Description: Alamar Blue cell proliferation. Format: cell-based. The conditions noted are these: 1975, 24 h. How it is done: FIG. 6A is a series of graphs illustrating the effect of CP9 on cell proliferation determined by an Alamar Blue assay. The indicated cancer cell lines were treated with different concentrations of CP9 for 24 h prior to incubation with Alamar blue for 4 h. The Hsp90 inhibitors PU-H71 and 17AAG were used as positive controls. Emissions at 570 nm in CP9-treated cells were normalized to that of carrier control-treated cells. Results are expressed as normalized cell proliferation±S.E.M.
(§1) CP9 had no effect on proliferation of normal MEFs. Since CP9 led to decrease in phosphorylated Akt (FIGS. 5A and 10A-10C), it was expected to inhibit glucose metabolism through relief of inhibition of glycogen synthase kinase […] (Nair & Olanow (2008) J. Biol. Chem. M707238200; Dandekar et al., (2007) J. Nucl. Med. 48: 602-607).
A general note: Alamar Blue is a resazurin reagent that responds to reducing activity.

In a further experiment the target is T1, Hsp90α/p23 interactions (Homo sapiens, UniProt P07900).
T1 construct: expressed in transfected cells; also with FL-eGFP reporter (293Tα-FG) and as xenografts in nude mice
Description: HTS dose response, 293T cells stably expressing Hsp90α/p23 split RL reporters. The class given is cell-based. The conditions noted are these: inhibition of bioluminescence signals by 50% vs carrier control; 8 point dose response 0.156-20 μM; 24 h. The procedure: Novel Hsp90 inhibitors using a commercial 30,176 small molecule chemical compound library with unknown targets and molecular mechanisms (FIG. 9B) were also identified. 293T cells stably expressing Hsp90α/p23 or Hsp90β/p23 split RL reporters were treated with each compound at 8.3 μM.
Baseline complemented RL activities were determined 90 mins after addition of 20 μl of ENDUREN® (10 μM final concentration) (Promega, Madison, Wis.) using the Analyst GT (Molecular Device, Sunnyvale, Calif.), with an acquisition time of 0.2 sec per well. Cells were incubated with compounds for 24 h prior to re-determination of complemented RL activities, and normalized to the mean RL activities of untreated cells in columns 1-2. Another small molecule chemical library with 30,176 compounds (SPECS, Wakefield, R.I.) was also used in screening modulators of Hsp90(α/β)/p23 inhibitors (at 8.3 μM, one drug per well for initial screening). For dose response/confirmation assay the compounds were tested in duplicate in an 8 point (0.156-20 μM) dose response assay for RL activities for both Hps90(α/β)/p23 interactions. The effect of each compound on cell proliferation at 20 μM was determined using Cell Titer-Blue assay in duplicate wells. […]

The subject of experiment [1] is Hsp90 client proteins (Raf-1, total and phosphorylated Akt). Put plainly: Western blotting of Hsp90 client proteins in 293T cells. The class given is cell-based, human. The conditions noted are these: 5 μM, 24 h. How it is done: FIG. 5A is a digital image of a western blot analysis illustrating the effect of lead compounds on the expression of Hsp90 client proteins. 293T cells stably expressing Hsp90(α/β)/p23 split reporters were treated with carrier control or compounds CP1, CP9, or CP18 (5 μM each) for 24 h. The known Hsp90 inhibitor PU-H71 (2 μM) was used as a positive control. The expression of Hsp90 client proteins (Raf-1, total and phosphorylated Akt) was determined by western blotting. α-Tubulin was used as a loading control.
Cells treated with PU-H71 (2 μM) served as a positive control.
Cells treated with 2 μM of PU-H71 served as a positive control. Western blotting of Hsp70, phosphorylated and total Akt and co-immunoprecipitation of Hsp90(α/β)/p23 interactions was performed as described Inglese et al., (2006) Proc. Nat. Acad. Sci. U.S.A. 103: 11473-11478, incorporated herein by reference in its entirety. The expression of Raf-1 was determined using rabbit polyclonal antibodies against Raf-1 (0.5 μg/ml, Abcam).
Background: A western blot detects proteins with antibodies after separation by electrophoresis.

A further experiment relates to normal MEFs. Put plainly: Alamar Blue cell proliferation. The class given is cell-based, mouse.
Source text: as §1

Experiment [2] deals with 293T Hsp90(α/β)/p23-FG xenografts. Description: 18F-FDG small animal PET/CT of tumor glucose metabolism. Format: in vivo, mice. How it is done: FIG. 8B is a graph illustrating quantitation of the effect of CP9 on inhibition of glucose metabolism. The PET image of each mouse and each site at each time point was reconstructed and quantified using the OSEM 2D algorithm. The increase in max % ID/g at 43 h relative to 0 hr is shown as average±S.E.M. CP9 led to significant decrease in glucose metabolism, compared to carrier control treated mice (p<0.005).
^18F-FDG PET/CT has been used for repetitive and non-invasive monitoring of chemotherapy responses both in small animals and in humans (Aliaga et al., (2007) Mol. Imaging. Biol. 9: 144-150; de Geus-Oei et al., (2009) J. Nucl. Med. 50(Suppl 1): 43S-54S). Since CP9 inhibits glucose metabolism in cancer cells (FIG. 6B), its effect in the same cohort of living mice used for BLI (FIGS. 7A-7C) was monitored by small animal PET/CT imaging using ^18F-FDG. […] Baseline ^18F-FDG uptake in tumor-bearing mice was determined pre-treatment with four doses of carrier control (DMSO) or CP9 (80 mg/kg in DMSO) (FIG. 8A). The % max ID/g of ^18F-FDG uptake was determined by the OSEM2D method upon normalization of injected dose (Wiant et al., (2010) Med. Phys. 37: 1169-1182). The % increase in ^18F-FDG uptake at 43 h relative to 0 h was determined for each tumor site. […]

For `Cc1cc(NC(=O)CSc2nc(-c3cccs3)cc(C(F)(F)F)n2)no1` [CP9, N-(5-methylisoxazol-3-yl)-2-(4-(thiophen-2-yl)-6-(trifluoromethyl)pyrimidin-2-ylthio)acetamide], the “inhibition of cell proliferation vs PU-H71 and 17-AAG” value in the experiment on 1975 cells was “more effective than PU-H71 and 17-AAG”. Further, the IC50 (as a rule, the concentration that inhibits the measured activity by half) at Hsp90α/p23 interactions turned out to be 3.2 µM. In experiment [1], the “levels of Hsp90 client proteins (pAkt/total Akt, Raf-1)” value is listed as “more effective than CP18”. For the same compound, the “proliferation of normal MEFs” value in the experiment on normal MEFs is “no effect”. In addition, the “decrease in 18F-FDG uptake in tumors relative to carrier control treated mice” value in experiment [2] (CP9 treatment, 43 h) came to 40%. In addition, in experiment [2] (four doses CP9 80 mg/kg in DMSO, n=10 tumors, p<0.005 vs carrier control), the “decrease in 18F-FDG uptake in tumors at 43 h relative to 0 h” value is listed as 16±9%.
